target: Human Factor D (Homo sapiens (Human), UniProt P00746); test: Human Factor D Assay; type: biochemical; conditions: Human Factor D, Table 3; read-out: IC50
Summary of the method: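 Factor D (from human serum) 80 nM final + cpd, 5 min RT, 50 mM Tris/1M NaCl pH 7.5; add Z-L-Lys-SBzl 100 μM and DTNB 100 μM final. IC50 by nonlinear fit of rates vs [cpd].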

Sequence of Human Factor D (P00746 26-253): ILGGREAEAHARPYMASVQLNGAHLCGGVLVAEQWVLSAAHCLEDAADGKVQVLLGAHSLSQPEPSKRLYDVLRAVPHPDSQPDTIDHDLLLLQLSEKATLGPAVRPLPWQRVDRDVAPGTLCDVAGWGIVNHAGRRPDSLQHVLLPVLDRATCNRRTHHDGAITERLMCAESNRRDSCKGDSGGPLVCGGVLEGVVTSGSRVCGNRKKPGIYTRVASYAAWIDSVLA

Row | SMILES | IC50 [nM]
1 | CC(=O)c1nn(CC(=O)N2C[C@H]3C[C@H]3[C@H]2C(=O)Nc2nc(Br)ccc2C)c2c(C)cc(-c3cnc(C)nc3)cc12 [Compound 652, (1R,2S,5S)-3-(2-(3-Acetyl-7-methyl-5-(2-methylpyrimidin-5-yl)-1H-indazol-1-yl)acetyl)-N-(6-bromo-3-methylpyridin-2-yl)-3-azabicyclo[3.1.0]hexane-2-carboxamide] | < 1000
2 | CC(=O)c1nn(CC(=O)N2C[C@H](F)C[C@H]2C(=O)Nc2cncc(Br)n2)c2ccc(-c3ccc4nc(C)cn4c3)cc12 [Compound 654, (2S,4R)-1-(2-(3-Acetyl-5-(2-methylimidazo[1,2-a]pyridin-6-yl)-1H-indazol-1-yl)acetyl)-N-(6-bromopyrazin-2-yl)-4-fluoropyrrolidine-2-carboxamide] | < 1000
3 | CC(=O)c1nn(CC(=O)N2C[C@H](F)C[C@H]2C(=O)Nc2cncc(Br)n2)c2ccc(-c3cnc4cc(C5CC5)nn4c3)cc12 [Compound 655, (2S,4R)-1-(2-(3-Acetyl-5-(2-cyclopropylpyrazolo[1,5-a]pyrimidin-6-yl)-1H-indazol-1-yl)acetyl)-N-(6-bromopyrazin-2-yl)-4-fluoropyrrolidine-2-carboxamide] | < 1000
4 | CC(=O)c1cn(CC(=O)N2C[C@H](F)C[C@H]2C(=O)Nc2cccc(OC(F)(F)F)n2)c2ccc(-c3cnc4cc(C)nn4c3)cc12 [Compound 656, (2S,4R)-1-(2-(3-Acetyl-5-(2-methylpyrazolo[1,5-a]pyrimidin-6-yl)-1H-indol-1-yl)acetyl)-4-fluoro-N-(6-(trifluoromethoxy)pyridin-2-yl)pyrrolidine-2-carboxamide] | < 1000
5 | CC(=O)c1cn(CC(=O)N2C[C@H](F)C[C@H]2C(=O)Nc2cc(C)cc(Br)n2)c2ccc(-c3cnc4cc(C)nn4c3)cc12 [Compound 657, (2S,4R)-1-(2-(3-Acetyl-5-(2-methylpyrazolo[1,5-a]pyrimidin-6-yl)-1H-indol-1-yl)acetyl)-N-(6-bromo-4-methylpyridin-2-yl)-4-fluoropyrrolidine-2-carboxamide] | < 1000
6 | CC(=O)c1nn(CC(=O)N2C[C@H](F)C[C@H]2C(=O)Nc2cccc(OC(F)F)n2)c2ccc(-c3cnc4cc(C)nn4c3)cc12 [Compound 658, (2S,4R)-1-(2-(3-Acetyl-5-(2-methylpyrazolo[1,5-a]pyrimidin-6-yl)-1H-indazol-1-yl)acetyl)-N-(6-(difluoromethoxy)pyridin-2-yl)-4-fluoropyrrolidine-2-carboxamide] | < 1000
7 | CC(=O)c1nn(CC(=O)N2[C@@H]3C[C@@H]3C[C@H]2C(=O)Nc2cncc(Br)n2)c2ccc(-c3ccc4nc(C)nn4c3)cc12 [Compound 659, (1R,3S,5R)-2-(2-(3-Acetyl-5-(2-methyl-[1,2,4]triazolo[1,5-a]pyridin-6-yl)-1H-indazol-1-yl)acetyl)-N-(6-bromopyrazin-2-yl)-2-azabicyclo[3.1.0]hexane-3-carboxamide] | < 1000
8 | CC(=O)c1nn(CC(=O)N2[C@@H]3C[C@@H]3C[C@H]2C(=O)Nc2cccc(Br)n2)c2ccc(-c3ccc4nc(C)nn4c3)cc12 [Compound 660, (1R,3S,5R)-2-(2-(3-Acetyl-5-(2-methyl-[1,2,4]triazolo[1,5-a]pyridin-6-yl)-1H-indazol-1-yl)acetyl)-N-(6-bromopyridin-2-yl)-2-azabicyclo[3.1.0]hexane-3-carboxamide] | < 1000
9 | CC(=O)c1nn(CC(=O)N2C[C@H](F)C[C@H]2C(=O)Nc2cnc(C)c(Br)n2)c2ccc(-c3cnc4cc(C)nn4c3)cc12 [Compound 662, (2S,4R)-1-(2-(3-Acetyl-5-(2-methylpyrazolo[1,5-a]pyrimidin-6-yl)-1H-indazol-1-yl)acetyl)-N-(6-bromo-5-methylpyrazin-2-yl)-4-fluoropyrrolidine-2-carboxamide] | < 1000
10 | CC(=O)c1nn(CC(=O)N2C[C@H](F)C[C@H]2C(=O)Nc2cnc(C)c(Br)n2)c2ccc(-c3ccc4nc(C)nn4c3)cc12 [Compound 663, (2S,4R)-1-(2-(3-Acetyl-5-(2-methyl-[1,2,4]triazolo[1,5-a]pyridin-6-yl)-1H-indazol-1-yl)acetyl)-N-(6-bromo-5-methylpyrazin-2-yl)-4-fluoropyrrolidine-2-carboxamide] | < 1000
11 | CC(=O)c1nn(CC(=O)N2[C@@H]3C[C@@H]3C[C@H]2C(=O)Nc2cncc(Br)n2)c2ccc(-c3cnc4ccnn4c3)cc12 [Compound 664, (1R,3S,5R)-2-(2-(3-Acetyl-5-(pyrazolo[1,5-a]pyrimidin-6-yl)-1H-indazol-1-yl)acetyl)-N-(6-bromopyrazin-2-yl)-2-azabicyclo[3.1.0]hexane-3-carboxamide] | < 1000
12 | CC(=O)c1nn(CC(=O)N2C[C@H](F)C[C@H]2C(=O)Nc2cnc(C)c(Br)n2)c2ccc(-c3cnc4ccnn4c3)cc12 [Compound 665, (2S,4R)-1-(2-(3-Acetyl-5-(pyrazolo[1,5-a]pyrimidin-6-yl)-1H-indazol-1-yl)acetyl)-N-(6-bromo-5-methylpyrazin-2-yl)-4-fluoropyrrolidine-2-carboxamide] | < 1000
13 | CC(=O)c1nn(CC(=O)N2[C@@H]3C[C@@H]3C[C@H]2C(=O)Nc2cnc(C)c(Br)n2)c2ccc(-c3cnc4cc(C)nn4c3)cc12 [Compound 666, (1R,3S,5R)-2-(2-(3-Acetyl-5-(2-methylpyrazolo[1,5-a]pyrimidin-6-yl)-1H-indazol-1-yl)acetyl)-N-(6-bromo-5-methylpyrazin-2-yl)-2-azabicyclo[3.1.0]hexane-3-carboxamide] | < 1000
14 | CC(=O)c1nn(CC(=O)N2[C@@H]3C[C@@H]3C[C@H]2C(=O)Nc2cnc(C)c(Br)n2)c2ccc(-c3cnc4ccnn4c3)cc12 [Compound 667, (1R,3S,5R)-2-(2-(3-Acetyl-5-(pyrazolo[1,5-a]pyrimidin-6-yl)-1H-indazol-1-yl)acetyl)-N-(6-bromo-5-methylpyrazin-2-yl)-2-azabicyclo[3.1.0]hexane-3-carboxamide] | < 1000
15 | CC(=O)c1nn(CC(=O)N2C[C@H](F)C[C@H]2C(=O)Nc2cccc(OC(F)(F)F)n2)c2ccc(-c3cnc4ccnn4c3)cc12 [Compound 668, (2S,4R)-1-(2-(3-Acetyl-5-(pyrazolo[1,5-a]pyrimidin-6-yl)-1H-indazol-1-yl)acetyl)-4-fluoro-N-(6-(trifluoromethoxy)pyridin-2-yl)pyrrolidine-2-carboxamide] | < 1000
16 | CC(=O)c1nn(CC(=O)N2[C@@H]3C[C@@H]3C[C@H]2C(=O)Nc2cncc(Br)n2)c2ccc(-c3cnc4cc(C5CC5)nn4c3)cc12 [Compound 669, (1R,3S,5R)-2-(2-(3-Acetyl-5-(2-cyclopropylpyrazolo[1,5-a]pyrimidin-6-yl)-1H-indazol-1-yl)acetyl)-N-(6-bromopyrazin-2-yl)-2-azabicyclo[3.1.0]hexane-3-carboxamide] | < 1000
17 | CC(=O)c1nn(CC(=O)N2[C@@H]3C[C@@H]3C[C@H]2C(=O)Nc2cccc(OC(F)(F)F)n2)c2ccc(-c3cnc4cc(C)nn4c3)cc12 [Compound 670, (1R,3S,5R)-2-(2-(3-Acetyl-5-(2-methylpyrazolo[1,5-a]pyrimidin-6-yl)-1H-indazol-1-yl)acetyl)-N-(6-(trifluoromethoxy)pyridin-2-yl)-2-azabicyclo[3.1.0]hexane-3-carboxamide] | < 1000
